In the CheMixHub viscosity set:
± gives the uncertainty stated by the source.

Experiment: xn = mol fraction of the nth substance listed

CCCCOCCO + ClC(Cl)Cl
298.15 K, 101.3 kPa
Settings	viscosity [mPa·s]
x1 = 0.0035	0.536 ± 0.007
x1 = 0.0216	0.555 ± 0.008
x1 = 0.0344	0.57 ± 0.008
x1 = 0.0767	0.628 ± 0.008
x1 = 0.1259	0.703 ± 0.009
x1 = 0.2281	0.901 ± 0.011
x1 = 0.2903	1.042 ± 0.013
x1 = 0.3627	1.235 ± 0.015
x1 = 0.4472	1.494 ± 0.018
x1 = 0.5049	1.659 ± 0.019
x1 = 0.5823	1.894 ± 0.022
x1 = 0.6772	2.175 ± 0.025
x1 = 0.7828	2.429 ± 0.028
x1 = 0.8296	2.525 ± 0.029
x1 = 0.9123	2.702 ± 0.03

CCOCCOCCOCC + ClC(Cl)Cl
298.15 K, 101 kPa
Settings	viscosity [mPa·s]
x1 = 0.0089	0.538 ± 0.014
x1 = 0.0178	0.56 ± 0.015
x1 = 0.0263	0.579 ± 0.015
x1 = 0.0446	0.62 ± 0.016
x1 = 0.0878	0.723 ± 0.018
x1 = 0.1473	0.862 ± 0.02
x1 = 0.1744	0.916 ± 0.021
x1 = 0.2224	1.012 ± 0.022
x1 = 0.2736	1.108 ± 0.022
x1 = 0.3402	1.194 ± 0.022
x1 = 0.345	1.208 ± 0.022
x1 = 0.3725	1.248 ± 0.022
x1 = 0.4081	1.284 ± 0.022
x1 = 0.4541	1.316 ± 0.021
x1 = 0.509	1.341 ± 0.02
x1 = 0.5754	1.353 ± 0.019
x1 = 0.626	1.358 ± 0.017
x1 = 0.6804	1.352 ± 0.016
x1 = 0.7347	1.342 ± 0.015
x1 = 0.7875	1.326 ± 0.013
x1 = 0.8348	1.312 ± 0.013
x1 = 0.8675	1.309 ± 0.012
x1 = 0.9216	1.292 ± 0.011
x1 = 0.9756	1.278 ± 0.011

CCOCCOCCOCC + ClCCl
298.15 K, 101 kPa
Settings	viscosity [mPa·s]
x1 = 0.0052	0.409 ± 0.011
x1 = 0.0103	0.413 ± 0.011
x1 = 0.0277	0.449 ± 0.012
x1 = 0.0559	0.492 ± 0.013
x1 = 0.0751	0.516 ± 0.013
x1 = 0.1056	0.576 ± 0.014
x1 = 0.1326	0.622 ± 0.015
x1 = 0.1807	0.699 ± 0.016
x1 = 0.2427	0.784 ± 0.016
x1 = 0.2846	0.843 ± 0.017
x1 = 0.3028	0.87 ± 0.017
x1 = 0.3207	0.893 ± 0.017
x1 = 0.3629	0.948 ± 0.017
x1 = 0.4227	1.006 ± 0.017
x1 = 0.445	1.031 ± 0.017
x1 = 0.5119	1.096 ± 0.017
x1 = 0.5582	1.131 ± 0.016
x1 = 0.583	1.148 ± 0.016
x1 = 0.6108	1.172 ± 0.015
x1 = 0.6567	1.192 ± 0.015
x1 = 0.7048	1.217 ± 0.014
x1 = 0.7501	1.233 ± 0.013
x1 = 0.803	1.246 ± 0.012
x1 = 0.8457	1.264 ± 0.012
x1 = 0.9124	1.268 ± 0.011
x1 = 0.9488	1.269 ± 0.011
x1 = 0.9709	1.27 ± 0.011

CCOC(=O)CCl + Clc1ccccc1
viscosity [mPa·s], 101.3 kPa
Settings	x1 = 0.1064	x1 = 0.2055	x1 = 0.3	x1 = 0.3972	x1 = 0.5005	x1 = 0.5976	x1 = 0.6985	x1 = 0.7953	x1 = 0.8963
298.15 K	0.799 ± 0.011	0.828 ± 0.011	0.858 ± 0.012	0.889 ± 0.012	0.925 ± 0.012	0.959 ± 0.013	0.996 ± 0.013	1.031 ± 0.014	1.064 ± 0.014
303.15 K	0.752 ± 0.01	0.778 ± 0.011	0.804 ± 0.011	0.834 ± 0.011	0.865 ± 0.012	0.895 ± 0.012	0.927 ± 0.012	0.959 ± 0.013	0.986 ± 0.013
308.15 K	0.706 ± 0.01	0.728 ± 0.01	0.751 ± 0.01	0.776 ± 0.011	0.804 ± 0.011	0.831 ± 0.011	0.858 ± 0.012	0.885 ± 0.012	0.91 ± 0.012

CCOC(=O)CCl + N#CCc1ccccc1
Settings	viscosity [mPa·s]
308.15 K, 101 kPa, x2 = 0.3793	1.155 ± 0.013
